In PubChem BioAssay (NCI):
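Exposure lasted 48 hours, with cells grown in 96-well plates and compounds tested at five concentrations. Definition used: TGI = concentration required for complete inhibition of growth.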

Tests used:
Experiment in all cases: NCI tumour cell line growth inhibition, 48 h
KM20L2 colon = test system: KM20L2 colon
M19-MEL melanoma = test system: M19-MEL melanoma
DMS 273 small cell lung = test system: DMS 273 small cell lung
DLD-1 colon = test system: DLD-1 colon
DMS 114 small cell lung = test system: DMS 114 small cell lung
XF 498 CNS = test system: XF 498 CNS
LXFL 529 NSCLC = test system: LXFL 529 NSCLC
SNB-78 CNS = test system: SNB-78 CNS
RXF-631 renal = test system: RXF-631 renal
P388/ADR leukemia = test system: P388/ADR leukemia
P388 leukemia = test system: P388 leukemia
SN12K1 renal = test system: SN12K1 renal

Row | SMILES | TGI (KM20L2 colon) [µM] | TGI (M19-MEL melanoma) [µM] | TGI (DMS 273 small cell lung) [µM] | TGI (DLD-1 colon) [µM] | TGI (DMS 114 small cell lung) [µM] | TGI (XF 498 CNS) [µM] | TGI (LXFL 529 NSCLC) [µM] | TGI (SNB-78 CNS) [µM] | TGI (RXF-631 renal) [µM] | TGI (P388/ADR leukemia) [µM] | TGI (P388 leukemia) [µM] | TGI (SN12K1 renal) [µM]
1 | O=C(O)CS | > 100 | > 100 | > 100 | > 100 | > 100 | > 100 | > 100 | > 100 | – | – | – | –
2 | CC1(C)OB(O)OC1(C)C | > 100 | – | > 100 | > 100 | > 100 | > 100 | > 100 | > 100 | – | – | – | –
3 | C=C1C(=O)OC2/C=C(/C)C3CC(O)C(C)(CC(OC(=O)/C(C)=C/C)C12)O3 (stereo unspecified) | 13.1 | 9.57 | 8.8 | 3.12 | 19.8 | 17.2 | 5.84 | 7.7 | – | – | – | –
4 | CC(C)CCC[C@@H](C)C1CCC2[C@@H]3CC=C4C[C@@H](C(=O)NCC[N+](C)(C)CCCS(=O)(=O)[O-])CC[C@]4(C)C3CC[C@@]21C (stereo partly specified) | 30.4 | 31.1 | 31.4 | 49.7 | 35.7 | – | 33.3 | 37.4 | 34.6 | – | – | –
5 | CCN(CC)CCCC(C)Nc1ccnc2ccc3nn(C)nc3c12 (stereo unspecified) | > 100 | > 100 | 91.5 | > 100 | – | – | > 100 | > 100 | – | – | – | –
6 | COC1C(O)C(C)OC(OC2C(Oc3cccc4c(O)c5c(=O)oc6ccc(C)c7c(=O)oc(c34)c5c67)OC(C)C(O)C2O)C1O (stereo unspecified) | 18.5 | 4.39 | 9.1 | 14.9 | 4.03 | 3.37 | – | 19.3 | – | 85 | 3.48 | 3.5
7 | CC1=C(C(=O)Nc2cc(=O)n(C)c(=O)n2C)C(c2ccc([N+](=O)[O-])cc2)C(C(=O)Nc2cc(=O)n(C)c(=O)n2C)=C(C)N1 | > 100 | > 100 | – | > 100 | > 100 | > 100 | > 100 | > 100 | > 100 | – | – | –
8 | O=C(Cc1csc(-c2nc(CC(=O)NNc3ccccc3)cs2)n1)NNc1ccccc1 | > 100 | > 100 | 34.2 | > 100 | 45.1 | > 100 | > 100 | > 100 | – | – | – | –
9 | CC(=O)c1ccc2c(ccc(=O)n2C)c1 | > 100 | > 100 | > 100 | > 100 | > 100 | > 100 | > 100 | – | – | – | – | –
10 | CS(=O)(=O)c1c(N)c2nc(Cl)cn2c2nc3ccccc3nc12 | > 100 | > 100 | > 100 | > 100 | > 100 | > 100 | > 100 | > 100 | > 100 | – | – | –
11 | c1ccc(C2=NOC3(c4ccccc4)SC4CCCCC4CN23)cc1 (stereo unspecified) | > 100 | > 100 | 77.3 | > 100 | 30.5 | > 100 | 27 | 91.7 | – | – | – | –
12 | C#CCN(N=O)C(=O)NC(CCCNC(=O)OCc1ccccc1)C(=O)OCc1ccccc1 (stereo unspecified) | > 100 | > 100 | > 100 | > 100 | > 100 | 60.1 | > 100 | > 100 | – | – | – | –
13 | CC(C)(C)NC(=O)NC12CC3CC(CC(F)(C3)C1)C2 | > 100 | > 100 | > 100 | > 100 | > 100 | > 100 | > 100 | > 100 | > 100 | – | – | –
14 | Clc1ccccc1C1=NN(c2ccccc2)C2c3ccccc3OCC12 (stereo unspecified) | > 100 | > 100 | > 100 | > 100 | > 100 | > 100 | > 100 | > 100 | > 100 | – | – | –
15 | COc1ccc(C2Oc3cc(OC)c(O)c(C)c3[C@H]2C)cc1 (stereo partly specified) | > 100 | > 100 | > 100 | > 100 | > 100 | – | > 100 | > 100 | – | – | – | –
16 | NC(=O)c1coc(C2OC(CO)C(O)C2O)n1 (stereo unspecified) | > 100 | > 100 | > 100 | – | > 100 | – | > 100 | > 100 | – | – | – | –
